From patent publication US8481551B2, “Gyrase and topoisomerase IV inhibitors” (Vertex Pharmaceuticals Incorporated, priority 2011, dated 2013)
Where a name gives a salt, the structure may show the parent alone. Read-outs that look alike come from different tables or passages of the source.

Columns and labels:
[1] = Pharmacokinetics, monkey oral study; type: in vivo, cynomolgus monkeys; details: for AUC: male, cynomolgus monkey, plasma, po, monkey plasma, label = analyte
From the text: Pharmacokinetic Data Analysis.
Statistical Data Analysis.
Plasma concentration vs. time data was subjected to noncompartmental pharmacokinetic (PK) analysis.

Aqueous solubility study = type: physicochemical
Procedure: The aqueous solubilities of compound 23 and compound W were determined according to the following procedure.
Preparation of Samples. Aqueous samples of each compound were prepared as follows. Compounds were weighed (20-30 mg compound) in 4 ml clear vials prior to adding water (0.5 mL) and stirring by magnetic stirrer. 1.0N HCl was added to the suspension to adjust the pH to the desired range. After stirring for 96 hours at room temperature, the suspension was filtered through a 0.22 micron filter (Millipore, Ultrafree centrifugal filters, Durapore PVDF 0.22 μm, Cat# UFC30GVNB). The filtrate was collected and the pH measured with a pH meter.
Preparation of Standard Solutions. […]
Solubility Analysis. Aliquots of each sample and each standard solution were analyzed by HPLC analysis (Agilent 1100, injection volume 10 μL, wavelength 271 nm, column XTerra® Phenyl 5 μm, 4.6×50 mm, Part No. 186001144, mobile phase: A: 0.1% TFA in water 0.1% TFA in AcN). […] Standard curves were obtained by plotting the average of the peak area from the HPLC versus the concentrations of the standard solutions (with appropriate corrections of the weights of the standards based on total water content of the solid as determined by elemental analysis). The concentration of each sample was calculated from the peak area of the aqueous sample from the HPLC results and the slope and intercept of the standard curves. […]

Proteus mirabilis = assay: Gyrase MIC against Gram negatives, microdilution broth method (Protocol 2); type: cell-based; details: 12 isolates tested
Enterococcus faecium = assay: Gyrase MIC, microdilution broth method (Protocol 1); details: for MIC Range: 33 isolates tested
Peptostreptococcus spp. = assay: Gyrase MIC, agar dilution method (Protocol 3); type: cell-based; details: 11 isolates tested
Bacteroides fragilis = assay: Gyrase MIC, agar dilution method (Protocol 3); type: cell-based; details: 25 isolates tested
Bacillus cereus = assay: Gyrase MIC, microdilution broth method (Protocol 1); type: cell-based
Staphylococcus aureus = assay: microbe, parasite or virus in culture; type: cell-based
[2] = Seven-day oral (gavage) toxicity and toxicokinetics study in rats; type: in vivo, Crl:CD(SD) rats; details: for Mean food consumption: Compound 13 once daily 100 or 200 mg/kg, Compound 23A twice daily 300 mg/kg, not considered adverse; for adverse observations / mean body weight: 7 days oral gavage; for histopathological findings: any dose regimen; for exposures for different dosage levels: toxicokinetics; for NOEL (No-Observable-Effect-Level) / dose levels without adverse toxicity: male, 7 days
From the text: Crl:CD(SD) rats were obtained from Charles River Laboratories of Stone Ridge, N.Y. The animals were laboratory bred and experimentally naïve. Rats were chosen because they are a species that is commonly used for nonclinical toxicity evaluations.
Forty rats (20 noncannulated males and 20 males with jugular vein cannulas) were ordered. From these animals, 15 noncannulated males and 15 cannulated males were used. Animals were as uniform in age as possible. The rats were prepubertal to young adult, approximately 9 weeks of age at initiation of dosing. Their supplier-calculated birth date was retained in the study records. The weight range for the animals at the time of allocation to groups was 218.5-306.3 g.
Animals received the test article or vehicle by oral gavage for 7 consecutive days and were terminated the day following completion of dosing. The first day of dosing was designated as Day 1 of the study. The animals were evaluated for changes in clinical signs, body weight, and other parameters as described below.
The vehicle and test article were administered by oral gavage once daily for 7 consecutive days at a dose volume of 10 mL/kg body weight for Group A and Groups B-D, respectively. The test article and vehicle were administered by oral gavage twice daily, approximately 8 hours apart, for 7 consecutive days at a dose volume of 10 mL/kg body weight for Group E and Group F, respectively. The actual volume administered to each animal was calculated and adjusted based on the most recent body weight of each animal.
The postdosing observations made during treatment occurred at the following times based on Cmax/Tmax for the two compounds from previous studies:
Prior to start of dosing, body weights were measured for randomization on Day 1. During the treatment, body weights were measured on Day 1 and Day 7. In addition, fasted body weights were measured prior to necropsy for calculation of organ/body weight ratios.
Throughout the study, food consumption was measured daily starting 3 days prior to start of dosing.
Blood samples for evaluation of hematology, coagulation, and serum chemistry parameters were collected from all animals from the retro-orbital plexus (under CO2/O2 anesthesia, for the main study animals) or jugular vein cannula (for the toxicokinetic animals) prior to necropsy. Due to residual heparin used to keep the cannulas patent for the toxicokinetic animals, coagulation samples from these rats, were not able to be analyzed. The animals were fasted overnight prior to blood collection. On the day of blood collection for clinical pathology analyses, the animals were not necropsied until after the blood was collected and the samples judged to be acceptable by the clinical pathology group.
An appropriate amount of blood was collected in EDTA-containing tubes. The whole blood samples were analyzed for the parameters indicated below in Table 11.
An appropriate amount of blood was collected in tubes containing sodium citrate and then centrifuged to obtain plasma for the determination of prothrombin time (PT) and activated partial thromboplastin time (APTT).
An appropriate amount of blood was collected in tubes without anticoagulant. The sample was allowed to clot and then was centrifuged to obtain serum. The serum was analyzed for the parameters indicated below in Table 12.
On the 1st and 7th day of dosing, blood samples (approximately 0.5 mL/sample) were collected from the jugular vein cannula for all toxicokinetic animals at the timepoints listed below into K3EDTA-containing tubes. […] Prior to each collection, a small sample of blood (with heparin blocking solution) was removed from the cannula and discarded. A new syringe was placed on the cannula, and the protocol-required sample was taken. The syringe with the blood sample was removed, and a new syringe with saline attached to the cannula. Blood volume was replaced with an equal volume of saline and then blocking solution placed in the cannula. […]

[3] = 100 mg/kg, Compound W dosed PO 100 mg/kg in 0.5% MC, read-out: AUCextrap
[4] = ATCC49624, Enterococcus faecium ATCC 49624, Protocol 1
[5] = ATCC49624, Enterococcus faecium ATCC 49624 with Laked Horse Blood, Protocol 1
[6] = ATCC10987, Bacillus cereus ATCC 10987
[7] = ATCC14579, Bacillus cereus ATCC 14579
[8] = ATCC29213, Staphylococcus aureus ATCC 29213, Protocol 1, read-out: MIC
[9] = ATCC29213, Staphylococcus aureus ATCC 29213 GyrB T173I, Protocol 1
[10] = ATCC29213, Staphylococcus aureus ATCC 29213 with Mouse Serum, Protocol 1, read-out: MIC
[11] = ATCC29213, Staphylococcus aureus ATCC 29213 with Rat Serum, Protocol 1, read-out: MIC
[12] = 300 mg/kg twice a day, compared to controls treated twice a day

SMILES | AUC [1, 3] [ng·h/mL] | MIC90 (Proteus mirabilis) [µg/mL] | MIC90 (Enterococcus faecium) [µg/mL] | MIC Range (Enterococcus faecium; Protocol 1) [µg/mL] | MIC (Enterococcus faecium; [4]) [µg/mL] | MIC (Enterococcus faecium; [5]) [µg/mL] | MIC90 (Peptostreptococcus spp.) [µg/mL] | MIC90 (Bacteroides fragilis) [µg/mL] | MIC (Bacillus cereus; [6]) [µg/mL] | MIC (Bacillus cereus; [7]) [µg/mL] | MIC90 (Staphylococcus aureus; 67 isolates tested, Protocol 1) [µg/mL] | MIC (Staphylococcus aureus; [8]) [µg/mL] | MIC (Staphylococcus aureus; [9]) [µg/mL] | MIC (Staphylococcus aureus; [10]) [µg/mL] | MIC (Staphylococcus aureus; [11]) [µg/mL] | Mean food consumption [2] | adverse observations / mean body weight ([2]; male rats) | histopathological findings ([2]; male rats) | exposures for different dosage levels ([2]; male rats) | NOEL (No-Observable-Effect-Level) ([2]; Crl:CD(SD), rat, in vivo, po) [mg/kg] | other results
CCNC(=O)Nc1nc2cc(-c3cnc(C(C)(C)O)nc3)c(F)c([C@H]3CCCO3)c2[nH]1 [Compound 23, 1-ethyl-3-[6-fluoro-5-[2-(1-hydroxy-1-methyl-ethyl)pyrimidin-5-yl]-7-[(2R)-tetrahydrofuran-2-yl]-1H-benzimidazol-2-yl]urea] | 76900 |  |  |  |  |  |  |  |  |  |  |  |  |  |  |  |  |  |  |  | AUC ([1]; 30 mg/kg, Compound W dosed PO 30 mg/kg in 0.5% MC, read-out: AUCextrap): 24800 ng·h/mL; AUC ([1]; 300 mg/kg, Compound W dosed PO 300 mg/kg in 0.5% MC, read-out: AUCextrap): 155000 ng·h/mL; Solubility (Aqueous solubility study; 96 h): <1 µg/mL
CCNC(=O)Nc1nc2cc(-c3cnc(C(C)(C)O)nc3)cc([C@H]3CCCO3)c2[nH]1 [Compound 13, methanesulfonic acid salt of 1-ethyl-3-[5-[2-(1-hydroxy-1-methyl-ethyl)pyrimidin-5-yl]-7-[(2R)-tetrahydrofuran-2-yl]-1H-benzimidazol-2-yl]urea] |  | > 8 | 0.5 | 0.12 to 0.5 | 0.25 | 0.39 | > 16 | > 16 | 0.5 | 0.5 | 0.25 | 0.13 | 1.29 | 2 | 0.53 | reduced during different intervals of the study | No adverse observations or effects on mean body weight | No test article-related histopathological findings | dose related | 200 | MIC Range (Staphylococcus aureus; 67 isolates tested, Protocol 1): 0.03 to 0.5 µg/mL; MIC (Staphylococcus aureus; ATCC29213, Staphylococcus aureus ATCC 29213 with Human Serum, Protocol 1, read-out: MIC): 0.31 µg/mL; AUC at 7 day ([2]; Crl:CD(SD), rat, in vivo, male rats, 200 mg/kg once a day for 7 days, oral gavage): 844000 ng·h/mL; dose levels without adverse toxicity ([2]; Crl:CD(SD), rat, in vivo, po): up to 200 mg/kg/day
CCNC(=O)Nc1nc2cc(-c3cnc(C(C)(C)O)nc3)c(F)c([C@H]3CCCO3)c2[nH]1 [Compound 23A, methanesulfonic acid salt of 1-ethyl-3-[6-fluoro-5-[2-(1-hydroxy-1-methyl-ethyl)pyrimidin-5-yl]-7-[(2R)-tetrahydrofuran-2-yl]-1H-benzimidazol-2-yl]urea] |  | > 8 | 0.12 | 0.003 to 0.25 | 0.11 | 0.11 | > 16 | 16 | 0.031 | 0.031 | 0.03 | 0.021 | 0.3 | 0.5 | 0.18 | reduced during different intervals of the study | No adverse observations or effects on mean body weight | No test article-related histopathological findings | dose related | 100 | MIC Range (Bacteroides fragilis): 1 to 16 µg/mL; mean ALT [2, 12]: statistically higher; mean AST [2, 12]: statistically higher; NOAEL at 7 days ([2]; Crl:CD(SD), rat, in vivo, po, 300 mg/kg, male rats, twice a day for 7 days orally via gavage, read-out: NOAEL (No-Observable-Adverse-Effect-Level)): 300 mg/kg; AUC ([2]; Crl:CD(SD), rat, in vivo, male rats, 100 mg/kg once a day for 7 days, oral gavage): 82000 ng·h/mL; AUC ([2]; Crl:CD(SD), rat, in vivo, male rats, 300 mg/kg twice a day for 7 days, oral gavage): 291000 ng·h/mL; dose levels without adverse toxicity ([2]; Crl:CD(SD), rat, in vivo, po): ≤ 600 mg/kg/day
CCNC(=O)Nc1nc2cc(-c3cnc(C(C)(C)OP(=O)([O-])[O-])nc3)c(F)c([C@H]3CCCO3)c2[nH]1.[Na+].[Na+] [Compound W, disodium (R)-2-(5-(2-(3-ethylureido)-6-fluoro-7-(tetrahydrofuran-2-yl)-1H-benzo[d]imidazol-5-yl)pyrimidin-2-yl)propan-2-yl phosphate] | 437 |  |  |  |  |  |  |  |  |  |  |  |  |  |  |  |  |  |  |  | conversion in vivo into Compound 23 ([1]; in at least rats, dogs and monkeys (all pharmacokinetic studies)): converted in vivo into Compound 23; AUC ([1]; 30 mg/kg, Compound W dosed PO 30 mg/kg in 0.5% MC, read-out: AUC): 45.3 ng·h/mL; AUC ([1]; 100 mg/kg, Compound W dosed PO 100 mg/kg in 0.5% MC, read-out: AUC): 432 ng·h/mL; AUC ([1]; 300 mg/kg, Compound W dosed PO 300 mg/kg in 0.5% MC, read-out: AUC): 3690 ng·h/mL; solubility at 96 h (Aqueous solubility study; aqueous buffer, thermodynamic from solid, water, pH 4.39, crystalline solid form, 96 hours at room temperature): 250 µg/mL
